Results published in ChEMBL document CHEMBL3885881, “DrugMatrix”.

Species on record: Rattus norvegicus
Assay: DrugMatrix - Regimen: Daily Repeat
Assay type: toxicity, organism-based, Sprague-Dawley
Parameters: regimen Daily Repeat, gender Male, age 6-8 weeks
Conditions: in vivo, po, route oral GAVAGE, vehicle .5 % CMC; for ABSOLUTE BASOPHIL / ABSOLUTE EOSINOPHIL / ABSOLUTE LYMPHOCYTE / ABSOLUTE MONOCYTE / ABSOLUTE SEGMENTED NEUTROPHIL / BASOPHIL / EOSINOPHIL / ERYTHROCYTE COUNT / HEMATOCRIT / HEMOGLOBIN / LEUKOCYTE COUNT / LYMPHOCYTE / MEAN CORPUSCULAR HEMOGLOBIN / MEAN CORPUSCULAR HEMOGLOBIN CONCENTRATION / MEAN CORPUSCULAR VOLUME / MONOCYTE / NEUTROPHIL / NUCLEATED RED BLOOD CELLS / PLATELET COUNT: tissue Blood; for ALANINE AMINOTRANSFERASE / ALBUMIN / ALKALINE PHOSPHATASE / ASPARTATE AMINOTRANSFERASE / BLOOD UREA NITROGEN / CARBON DIOXIDE / CHLORIDE / CHOLESTEROL / CREATINE PHOSPHOKINASE / CREATININE / GLUCOSE / LACTATE DEHYDROGENASE / LIPASE / PHOSPHORUS / POTASSIUM / SODIUM / TOTAL BILIRUBIN / TOTAL PROTEIN / URIC ACID: tissue Plasma
[1] = 50 mg/kg, 72 h, dose level Low, time 3 day
[2] = 50 mg/kg, 120 h, dose level Low, time 5 day
[3] = 1200 mg/kg, 72 h, dose level High, time 3 day
[4] = 1200 mg/kg, 120 h, dose level High, time 5 day

CC[C@H](C)C(=O)O[C@H]1CCC=C2C=C[C@H](C)[C@H](CC[C@@H]3C[C@@H](O)CC(=O)O3)[C@H]21 [MEVASTATIN]
ABSOLUTE BASOPHIL [1]: 0 CELLS/uL | ABSOLUTE EOSINOPHIL [1]: 41.33 CELLS/uL | ABSOLUTE LYMPHOCYTE [1]: 11887.33 CELLS/uL | ABSOLUTE MONOCYTE [1]: 84.33 CELLS/uL | ABSOLUTE SEGMENTED NEUTROPHIL [1]: 587 CELLS/uL | BASOPHIL [1]: 0% | EOSINOPHIL [1]: 0.33% | ERYTHROCYTE COUNT [1]: 5.78 x10E6/uL | HEMATOCRIT [1]: 37.3% | HEMOGLOBIN [1]: 14.77 G/DL | LEUKOCYTE COUNT [1]: 12.6 x10E3/uL | LYMPHOCYTE [1]: 94.33% | MEAN CORPUSCULAR HEMOGLOBIN [1]: 25.53 pg | MEAN CORPUSCULAR HEMOGLOBIN CONCENTRATION [1]: 39.6 G/DL | MEAN CORPUSCULAR VOLUME [1]: 64.47 fL | MONOCYTE [1]: 0.67% | NEUTROPHIL [1]: 4.67% | NUCLEATED RED BLOOD CELLS [1]: 1 /100WBC | PLATELET COUNT [1]: 1148.33 x10E3/uL | ALANINE AMINOTRANSFERASE [1]: 48.67 u/L | ALBUMIN [1]: 4.43 G/DL | ALKALINE PHOSPHATASE [1]: 400 u/L | ASPARTATE AMINOTRANSFERASE [1]: 85.67 u/L | BLOOD UREA NITROGEN [1]: 16 mg/dL | CARBON DIOXIDE [1]: 25.33 mmol/L | CHLORIDE [1]: 100.33 MEQ/L | CHOLESTEROL [1]: 87 mg/dL | CREATINE PHOSPHOKINASE [1]: 404 u/L | CREATININE [1]: 0.2 mg/dL | GLUCOSE [1]: 161 mg/dL | LACTATE DEHYDROGENASE [1]: 232.67 u/L | LIPASE [1]: 8.67 u/L | PHOSPHORUS [1]: 14.2 mg/dL | POTASSIUM [1]: 6.89 MEQ/L | SODIUM [1]: 146.63 MEQ/L | TOTAL BILIRUBIN [1]: 0.33 mg/dL | TOTAL PROTEIN [1]: 6.2 G/DL | URIC ACID [1]: 1.93 mg/dL | ABSOLUTE BASOPHIL [2]: 0 CELLS/uL | ABSOLUTE EOSINOPHIL [2]: 47 CELLS/uL | ABSOLUTE LYMPHOCYTE [2]: 15631 CELLS/uL | ABSOLUTE MONOCYTE [2]: 0 CELLS/uL | ABSOLUTE SEGMENTED NEUTROPHIL [2]: 1122 CELLS/uL | BASOPHIL [2]: 0% | EOSINOPHIL [2]: 0.33% | ERYTHROCYTE COUNT [2]: 5.52 x10E6/uL | HEMATOCRIT [2]: 35.63% | HEMOGLOBIN [2]: 13.8 G/DL | LEUKOCYTE COUNT [2]: 16.8 x10E3/uL | LYMPHOCYTE [2]: 93% | MEAN CORPUSCULAR HEMOGLOBIN [2]: 25.03 pg | MEAN CORPUSCULAR HEMOGLOBIN CONCENTRATION [2]: 38.77 G/DL | MEAN CORPUSCULAR VOLUME [2]: 64.6 fL | MONOCYTE [2]: 0% | NEUTROPHIL [2]: 6.67% | NUCLEATED RED BLOOD CELLS [2]: 1 /100WBC | PLATELET COUNT [2]: 1219.33 x10E3/uL | ALANINE AMINOTRANSFERASE [2]: 52.67 u/L | ALBUMIN [2]: 4.5 G/DL | ALKALINE PHOSPHATASE [2]: 335.67 u/L | ASPARTATE AMINOTRANSFERASE [2]: 79.67 u/L | BLOOD UREA NITROGEN [2]: 15.67 mg/dL | CARBON DIOXIDE [2]: 25.67 mmol/L | CHLORIDE [2]: 103 MEQ/L | CHOLESTEROL [2]: 67.33 mg/dL | CREATINE PHOSPHOKINASE [2]: 212.33 u/L | CREATININE [2]: 0.19 mg/dL | GLUCOSE [2]: 153.33 mg/dL | LACTATE DEHYDROGENASE [2]: 162 u/L | LIPASE [2]: 9 u/L | PHOSPHORUS [2]: 12.43 mg/dL | POTASSIUM [2]: 6.8 MEQ/L | SODIUM [2]: 146.23 MEQ/L | TOTAL BILIRUBIN [2]: 0.23 mg/dL | TOTAL PROTEIN [2]: 6.3 G/DL | URIC ACID [2]: 1.63 mg/dL | ABSOLUTE BASOPHIL [3]: 0 CELLS/uL | ABSOLUTE EOSINOPHIL [3]: 56 CELLS/uL | ABSOLUTE LYMPHOCYTE [3]: 15055 CELLS/uL | ABSOLUTE MONOCYTE [3]: 329 CELLS/uL | ABSOLUTE SEGMENTED NEUTROPHIL [3]: 1226.67 CELLS/uL | BASOPHIL [3]: 0% | EOSINOPHIL [3]: 0.33% | ERYTHROCYTE COUNT [3]: 5.72 x10E6/uL | HEMATOCRIT [3]: 38.57% | HEMOGLOBIN [3]: 15.2 G/DL | LEUKOCYTE COUNT [3]: 16.67 x10E3/uL | LYMPHOCYTE [3]: 90.33% | MEAN CORPUSCULAR HEMOGLOBIN [3]: 26.6 pg | MEAN CORPUSCULAR HEMOGLOBIN CONCENTRATION [3]: 39.43 G/DL | MEAN CORPUSCULAR VOLUME [3]: 67.5 fL | MONOCYTE [3]: 2% | NEUTROPHIL [3]: 7.33% | NUCLEATED RED BLOOD CELLS [3]: 0.67 /100WBC | PLATELET COUNT [3]: 1303 x10E3/uL | ALANINE AMINOTRANSFERASE [3]: 47.67 u/L | ALBUMIN [3]: 4.63 G/DL | ALKALINE PHOSPHATASE [3]: 402.33 u/L | ASPARTATE AMINOTRANSFERASE [3]: 96.67 u/L | BLOOD UREA NITROGEN [3]: 20 mg/dL | CARBON DIOXIDE [3]: 29.33 mmol/L | CHLORIDE [3]: 102.67 MEQ/L | CHOLESTEROL [3]: 68.33 mg/dL | CREATINE PHOSPHOKINASE [3]: 235 u/L | CREATININE [3]: 0.16 mg/dL | GLUCOSE [3]: 180 mg/dL | LACTATE DEHYDROGENASE [3]: 194 u/L | LIPASE [3]: 9 u/L | PHOSPHORUS [3]: 14.33 mg/dL | POTASSIUM [3]: 7.63 MEQ/L | SODIUM [3]: 146.93 MEQ/L | TOTAL BILIRUBIN [3]: 0.13 mg/dL | TOTAL PROTEIN [3]: 6.37 G/DL | URIC ACID [3]: 2.77 mg/dL | ABSOLUTE BASOPHIL [4]: 0 CELLS/uL | ABSOLUTE EOSINOPHIL [4]: 0 CELLS/uL | ABSOLUTE LYMPHOCYTE [4]: 14826.67 CELLS/uL | ABSOLUTE MONOCYTE [4]: 346.67 CELLS/uL | ABSOLUTE SEGMENTED NEUTROPHIL [4]: 1426.67 CELLS/uL | BASOPHIL [4]: 0% | EOSINOPHIL [4]: 0% | ERYTHROCYTE COUNT [4]: 5.39 x10E6/uL | HEMATOCRIT [4]: 33.63% | HEMOGLOBIN [4]: 13.5 G/DL | LEUKOCYTE COUNT [4]: 16.6 x10E3/uL | LYMPHOCYTE [4]: 89.67% | MEAN CORPUSCULAR HEMOGLOBIN [4]: 25.1 pg | MEAN CORPUSCULAR HEMOGLOBIN CONCENTRATION [4]: 40.2 G/DL | MEAN CORPUSCULAR VOLUME [4]: 62.43 fL | MONOCYTE [4]: 2% | NEUTROPHIL [4]: 8.33% | NUCLEATED RED BLOOD CELLS [4]: 0 /100WBC | PLATELET COUNT [4]: 1567.67 x10E3/uL | ALANINE AMINOTRANSFERASE [4]: 54.33 u/L | ALBUMIN [4]: 4.5 G/DL | ALKALINE PHOSPHATASE [4]: 319 u/L | ASPARTATE AMINOTRANSFERASE [4]: 97 u/L | BLOOD UREA NITROGEN [4]: 19.33 mg/dL | CARBON DIOXIDE [4]: 33 mmol/L | CHLORIDE [4]: 100.33 MEQ/L | CHOLESTEROL [4]: 65.33 mg/dL | CREATINE PHOSPHOKINASE [4]: 319.67 u/L | CREATININE [4]: 0.19 mg/dL | GLUCOSE [4]: 136.67 mg/dL | LACTATE DEHYDROGENASE [4]: 464 u/L | LIPASE [4]: 8.67 u/L | PHOSPHORUS [4]: 12.33 mg/dL | POTASSIUM [4]: 6.95 MEQ/L | SODIUM [4]: 143.97 MEQ/L | TOTAL BILIRUBIN [4]: 0.2 mg/dL | TOTAL PROTEIN [4]: 6.1 G/DL | URIC ACID [4]: 1.8 mg/dL
